This note sets out measurements from patent US10370436B2, “Anti-pseudomonas Psl binding molecules and uses thereof” (priority 2011, dated 2019).

Data set [1] deals with P. aeruginosa strain 9882-80 (O11). Nature of the data set: OPK assay, strain 9882-80.lux. It counts as cell-based, Pseudomonas aeruginosa. As to conditions: strain 9882-80.lux (O11); FIG. 2B. The protocol: (§1) This example describes the evaluation of prioritized human IgG1 antibodies to promote OPK of P. aeruginosa. […] OPK assays were performed as described in (DiGiandomenico, A., et al., Infect Immun 72, 7012-7021 (2004)), with modifications. Briefly, assays were performed in 96-well plates using 0.025 ml of each OPK component; P. aeruginosa strains; diluted baby rabbit serum; differentiated HL-60 cells; and monoclonal antibody. In some OPK assays, luminescent P. aeruginosa strains, which were constructed as described (Choi, K. H., et al., Nat Methods 2, 443-448 (2005)), were used. Luminescent OPK assays were performed as described above but with determination of relative luciferase units (RLUs) using a Perkin Elmer ENVISION Multilabel plate reader (Perkin Elmer).
The ability of the WapR-004 and Cam-003 antibodies to mediate OPK activity against another clinically relevant O-antigen serotype strain, 9882-80.lux, was evaluated.

Data set [2] concerns non-mucoid P. aeruginosa strains from clinically relevant O-antigen serotypes. The experiment in a line: OPK assay, non-mucoid clinical isolates. It counts as cell-based, Pseudomonas aeruginosa. The note with it: FIG. 2C. The protocol:
as §1
The ability of Cam-003 to mediate OPK activity against representative non-mucoid strains from clinically relevant O-antigen serotypes and against mucoid P. aeruginosa strains which were derived from cystic fibrosis patients was evaluated.

Data set [3] has as its system P. aeruginosa strains PAO1, 33356, 6294, 6077. Nature of the data set: P. aeruginosa acute pneumonia model, survival. It counts as in vivo, BALB/c mice. The procedure:
FIG. 6 (A-G): Survival rates for animals treated with anti-Psl monoclonal antibodies Cam-003 or WapR-004 in a P. aeruginosa acute pneumonia model. (A-D) Animals were treated with Cam-003 at 45, 15, and 5 mg/kg and R347 at 45 mg/kg or PBS 24 hours prior to intranasal infection with (A) PAO1 (1.6×10^7 CFU), (B) 33356 (3×10^7 CFU), (C) 6294 (7×10^6 CFU), (D) 6077 (1×10^6 CFU). (E-F) Animals were treated with WapR-004 at 5 and 1 mg/kg as indicated followed by infection with 6077 at (E) (8×10^5 CFU), or (F) (6×10^5 CFU). Animals were carefully monitored for survival up to 72 hours (A-D) or for 120 hours (E-F). (G) Animals were treated with Cam-003 at 15 mg/kg or 5 mg/kg, or R347 at 15 mg/kg 24 hours prior to intranasal infection with PAO1 (4.4×10^7 CFU), and Cam-003 at 15 mg/kg 24 hours prior to intranasal infection with PAO1ΔpslA (3×10^7 CFU). In all experiments, PBS and R347 served as negative controls. Results are represented as Kaplan-Meier survival curves; differences in survival were calculated by the Log-rank test for Cam-003 vs. R347. (A) Cam-003 (45 mg/kg—P<0.0001; 15 mg/kg—P=0.0003; 5 mg/kg—P=0.0033). (B) Cam-003 (45 mg/kg—P=0.0012; 15 mg/kg—P=0.0012; 5 mg/kg—P=0.0373). (C) Cam-003 (45 mg/kg—P=0.0007; 15 mg/kg—P=0.0019; 5 mg/kg—P=0.0212). (D) Cam-003 (45 mg/kg—P<0.0001; 15 mg/kg—P<0.0001; 5 mg/kg—P=0.0001). Results are representative of at least two independent experiments. (E) [Cam-003 (5 mg/kg) vs. R347 (5 mg/kg): P=0.02; Cam-003 (1 mg/kg) vs. R347 (5 mg/kg): P=0.4848; WapR-004 (5 mg/kg) vs. R347 (5 mg/kg): P<0.0001; WapR-004 (1 mg/kg) vs. R347 (5 mg/kg): P=0.0886; WapR-004 (5 mg/kg) vs. Cam-003 (5 mg/kg): P=0.0017; WapR-004 (1 mg/kg) vs. Cam-003 (1 mg/kg): P=0.2468; R347 (5 mg/kg) vs. PBS: P=0.6676] (F) [Cam-003 (5 mg/kg) vs. R347 (5 mg/kg): P=0.0004; Cam-003 (1 mg/kg) vs. R347 (5 mg/kg): P<0.0001; WapR-004 (5 mg/kg) vs. R347 (5 mg/kg): P<0.0001; WapR-004 (1 mg/kg) vs. R347 (5 mg/kg): P<0.0001; WapR-004 (5 mg/kg) vs. Cam-003 (5 mg/kg): P=0.0002; WapR-004 (1 mg/kg) vs. Cam-003 (1 mg/kg): P=0.2628; R347 (5 mg/kg) vs. PBS: P=0.6676. (G) Cam-003 (15 mg/kg—P=0.0028; 5 mg/kg—P=0.0028)]. Results are representative of five independent experiments.
Antibodies or PBS were administered 24 hours before infection in each model. P. aeruginosa acute pneumonia, keratitis, and thermal injury infection models were performed as described (DiGiandomenico, A., et al., Proc Natl Acad Sci USA 104, 4624-4629 (2007)), with modifications. In the acute pneumonia model, BALB/c mice (The Jackson Laboratory) were infected with P. aeruginosa strains suspended in a 0.05 ml inoculum. In the thermal injury model, CF-1 mice (Charles River) received a 10% total body surface area burn with a metal brand heated to 92° C. for 10 seconds. Animals were infected subcutaneously with P. aeruginosa strain 6077 at the indicated dose. For organ burden experiments, acute pneumonia was induced in mice followed by harvesting of lungs, spleens, and kidneys 24 hours post-infection for determination of CFU.

Data set [4] relates to P. aeruginosa strain 6294. Nature of the data set: P. aeruginosa sepsis model. It counts as in vivo, C57Bl/6 mice. The procedure:
C57Bl/6 mice (10 per group) were dosed with mAb or PMB-mAb conjugates i.p (10, 1 and 0.1 mg/kg) 6 h prior to i.p. challenge with LD80-100 dose of P. aeruginosa strain 6294 (4E7 CFU). Data from two studies was combined in this analysis. Survival was monitored over 72 h. Combined results of two studies are shown in FIGS. 21A-C: Most control mice dosed with A7 or buffer died by 24 h. […] Conversely, the conjugates were less protective than CAM-003 at the low dose of 0.1 mg/kg, and protective activity correlated with in vitro OPK activity of the conjugates (WT>SM>DM>TM).

Turning to “Cam-003: human IgG1 anti-Psl monoclonal antibody, VH SEQ ID NO: 1 and VL SEQ ID NO: 2”, the OPK activity entry is on record as “OPK activity extends to strain 9882-80” in data set [1] and “mediated potent OPK of all non-mucoid clinical isolates tested” in data set [2]. The survival result is “Increased survival was not observed” in data set [3] (Psl mutant strain PAO1ΔpslA, FIG. 6G); 90% in data set [3] (strain 6077, 5 mg/kg, FIG. 6D); 80% in data set [3] (strain 33356, 5 mg/kg, FIG. 6B); 100% in data set [3] (strain PAO1, at 120 hours, FIG. 6G); “significant concentration-dependent survival” in data set [3] (strains PAO1 and 6294, 45, 15, 5 mg/kg 24 hours prior to intranasal infection, FIGS. 6A, 6C). The “activity versus Cam-003-TM” value in data set [3] (larger infectious inoculum of 6077 (1.07×10^6), titrated antibody dose, FIG. 9E) is on record as “superior to Cam-003-TM”. The protection from challenge entry in data set [3] (strains 33356 and 6077, 45 and 15 mg/kg, FIGS. 6B, 6D) is recorded as “complete protection”. In addition, the “dose relation of protective activity” value in data set [4] (10, 1 and 0.1 mg/kg) was “inversely correlated with dose”. For the same substance, the protection in data set [4] (10, 1 and 0.1 mg/kg i.p. 6 h prior to i.p. challenge, survival over 72 h, FIGS. 21A-C) is given as 50-90%.
